# In paper PMC6934184, “Selective DNA-PKcs inhibition extends the therapeutic index of localized radiotherapy and chemotherapy” (The Journal of Clinical Investigation, 2019):
# Test system: normal lung tissue
# Assay: γH2AX-positive cells in normal lung after thoracic irradiation
# Assay type: in vivo, mouse
# Conditions: 24 hours after 10 Gy; NU5455 30 mg/kg oral
# Procedure: combined with 10 Gy thorax irradiation ( n = 6 - 7/group). For whole-thorax irradiation, anaesthetized mice were placed in the supine position in a customized rig. The whole thorax was exposed to X-ray radiation generated by the Gulmay Medical RS320 irradiation system (2.034 Gy/minute). The rest of the body was protected by lead shields. Three mice fr om each treatment group were humanely killed 24 h ours after irradiation, and their tumors processed to permit immunohistochemical analysis .
# Tumor growth in the remaining mice was monitored by bioluminescent imaging on days 0, 4, 8 and 15 post-treatment. Mice were injected with luciferin (150 mg/kg i.p., Santa Cruz Biotechnology) and bioluminescence images were acquired using the IVIS Spectrum (PerkinElmer) at 5 minute intervals until maximum light was collected. […] Data were analyzed using LivingImage software (PerkinElmer). […]
# Tissues were fixed in 4% paraformaldehyde (PFA) and paraffin -embedded. […] One tissue section from each of 3 mice per group was examined, and the whole section (excluding necrotic areas) analyzed using ImageScope analysis software (Aperio Technologies). γH2AX and 53BP1 foci were manually counted in 200 nuclei from each tumor sample. The percentage of γH2AX and 53BP1 positive nuclei in lung epithelial cells was quantified manually in normal lung samples across 5 randomly-chosen fields of view per […]
compound,measurement,value
CN(C(=O)CN1CCOCC1)c1ccc2sc3c(-c4cccc5c(=O)cc(N6CC7CCC(C6)O7)oc45)cccc3c2c1 [NU5455],number of γH2AX-positive cells in normal lung,unaffected by NU5455 administration
